In brackets after ≈: the same amount, converted by molar mass. Like-named read-outs stand apart in the source and are kept apart here.
Assays:
Davis strain CMV = assay: Reduction of CMV-induced cytopathicity in HEL cells; assay type: cell-based, human cytomegalovirus (HCMV); details: for Antiviral % Inhibition Davis strain CMV: estimate of percent protection at the concentration in the previous column; for EC50: read-out: Antiviral EC50 (ug/ml) Davis strain CMV
Method: Confluent HEL cells grown in […] microtiter plates were inoculated with CMV at an input of 100 PFU (plaque forming units) per well. After a one to two hour incubation period, residual virus was removed and the infected cells were further incubated with MEM (Minimal Essential Medium) (supplemented with 2% inactivated Fetal Calf Serum (FCS), […], and 0.3% sodium bicarbonate) containing varying concentrations of the test compounds. Antiviral activity was expressed as EC50 (50% effective concentration), or test compound concentration required to reduce virus-induced cytopathicity after seven days by 50% compared to the untreated control.
In some cases, the compounds had considerable cytotoxicity against HEL cells, which made determination of the EC50 difficult. In these cases, an estimate of the percent protection at the compound concentration indicated in the previous columns is given.

HIV-1 (IIIB) = assay: microbe, parasite or virus in culture; assay type: cell-based; details: for EC50 (ug/ml) HIV-1 / EC50: CEM cells, syncytium formation, day four post infection; for HIV-1 % Protection: protection of CEM cells against virus-induced cytopathicity at the concentration in the previous column; for EC50: Human immunodeficiency virus 1, IIIB, CCRF-CEM, read-out: EC50 (ug/ml) HIV-1
Excerpt: (§1) The cell type used to determine activity of the compounds of the invention herein, i.e., the test compounds, against HIV was human T-lymphoblast (CEM) cells obtained from the American Tissue Cell Culture Collection (Rockville, Md.). HIV-1 (IIIB) was originally obtained from the culture of persistently HIV-1 infected H9 cells and was provided by R. C. Gallo and M. Popovic (National Cancer Institute, National Institutes of Health, Bethesda, Md.). HIV-2 (ROD) was originally obtained from L. M. Montagnier (Pasteur Institute, Paris, France).
(§2) To determine the antiviral activity of the test compounds, CEM cells were suspended at a cell density of approximately 300,000 cells per ml of culture medium and infected with approximately 100 CCID50 (100 CCID50 being the 50% cell culture infective dose) of HIV-1 (IIIB) or HIV-2 (ROD)). Then 100 μl of the infected cell suspensions was added to 200 μl micro titer plate wells containing 100 μl of appropriate serial (5-fold) dilutions of the test compounds. The inhibitory effect of the test compounds on HIV-1 or HIV-2 syncytium formation in CEM cells was examined microscopically on day four post infection.
(§3) In these cases, the percent protection of the cells against virus-induced cytopathicity by the test compounds at the indicated compound concentration in the previous column is given.

HIV-2 (ROD) = assay: Inhibition of HIV-2 syncytium formation in CEM cells; assay type: cell-based; details: for HIV-2 % Protection: protection of CEM cells against virus-induced cytopathicity at the concentration in the previous column; for EC50: Human immunodeficiency virus 2, CCRF-CEM, read-out: EC50 (ug/ml) HIV-2
Excerpt: as §1, §2, §3

[1] = HEL cells, virus-induced cytopathicity after seven days
[2] = CEM cells, syncytium formation, day four post infection

| Compound | Antiviral EC50 (ug/ml) Davis strain CMV (Davis strain CMV; [1]) [µg/mL] | EC50 (ug/ml) HIV-1 (HIV-1 (IIIB)) | EC50 (ug/ml) HIV-2 (HIV-2 (ROD); [2]) | HIV-2 % Protection (HIV-2 (ROD)) [%] | other results |
| --- | --- | --- | --- | --- | --- |
| Cc1ccc[n+]([O-])c1S(=O)(=O)C(C)c1ccccc1Cl (centres unmarked) [Compound 120] | 12.5 | 3.30 µg/mL (≈ 10.6 µM) | >20.00 µg/mL | 0.0 | – |
| Oc1cccnc1SCc1ccccc1 [Compound 140, 2-[(Phenylmethyl)thio]-3-pyridinol] | – | – | – | – | EC50 (Davis strain CMV; Human betaherpesvirus 5, HEL, 168 h): 12 µg/mL (≈ 55.2 µM); EC50 (HIV-1 (IIIB)): 2 µg/mL (≈ 9.2 µM); EC50 (HIV-2 (ROD)): 12 µg/mL (≈ 55.2 µM) |
| COc1ccc([N+](=O)[O-])cc1CS(=O)(=O)c1cccc[n+]1[O-] [Compound 20] | 13.0 | 7.00 µg/mL (≈ 21.6 µM) | 13.0 µg/mL (≈ 40.1 µM) | – | – |
| Cc1cc(C)c(C[S+]([O-])c2cccc[n+]2[O-])c(C)c1 (centres unmarked) [Compound 88, 2-(2,4,6-trimethylbenzylsulfinyl)-pyridine-N-oxide] | – | – | – | – | EC50 (Davis strain CMV; Human betaherpesvirus 5, 168 h, HEL cells, virus-induced cytopathicity after seven days): 25 µg/mL (≈ 90.8 µM); EC50 (HIV-1 (IIIB)): 1.5 µg/mL (≈ 5.45 µM); EC50 (HIV-2 (ROD); [2]): 1.5 µg/mL (≈ 5.45 µM) |
| Cc1ccccc1C(C)S(=O)(=O)c1cccc[n+]1[O-] (centres unmarked) [Compound 104] | 34.5 | 40.00 µg/mL (≈ 144 µM) | 2.5 µg/mL (≈ 9.01 µM) | – | – |
| O=S(=O)(c1cccc[n+]1[O-])C(Cl)c1ccccc1 (stereo not drawn) [Compound 105, 2-(alpha-phenyl-alpha-chloromethylsulfonyl)pyridine-N-oxide] | 23.0 | 16.00 µg/mL (≈ 56.4 µM) | 2.5 µg/mL (≈ 8.81 µM) | – | – |
| O=S(=O)(Cc1ccc(-c2ccccc2)cc1)c1cccc[n+]1[O-] [Compound 54] | 5.0 | ≧4 ug/ml | 4.0 µg/mL (≈ 12.3 µM) | – | HIV-1 % Protection (HIV-1 (IIIB)): 37.5% |
| Cc1ccc(C)c(C[S+]([O-])c2cccc[n+]2[O-])c1 (centres unmarked) [Compound 3] | 36.0 | 7.20 µg/mL (≈ 27.5 µM) | ≧20 ug/ml | 37.5 | – |
| Nc1ccn(C[C@@H](CO)OCP(=O)(O)O)c(=O)n1 [S-HPMPC, reference compound] | 0.3 | – | – | – | – |
| Nc1nc2c(ncn2COC(CO)CO)c(=O)[nH]1 [DHPG, reference compound] | 1 | – | – | – | – |
| Cc1ccc(C)c(CSc2c(C)ccc[n+]2[O-])c1 [Compound 164] | – | 1.0 µg/mL (≈ 3.86 µM) | >20 µg/mL | 0.0 | – |
| O=S(=O)(Cc1ccc2c(c1)OCO2)c1cccc[n+]1[O-] [Compound 39] | >20 | 9.00 µg/mL (≈ 30.7 µM) | – | – | Antiviral % Inhibition Davis strain CMV (Davis strain CMV; HEL cells): 30.0% |

More lines, main results first:

| Antiviral EC50 (ug/ml) Davis strain CMV (Davis strain CMV; [1]) [µg/mL] | EC50 (ug/ml) HIV-1 (HIV-1 (IIIB)) | EC50 (ug/ml) HIV-2 (HIV-2 (ROD); [2]) | Compound | HIV-2 % Protection (HIV-2 (ROD)) [%] | other results |
| --- | --- | --- | --- | --- | --- |
| 50.0 | >20 µg/mL | >100.0 µg/mL | COc1ccc(CSc2cc(CC(C)C)cc[n+]2[O-])cc1 [Compound 134] | 0.0 | HIV-1 % Protection (HIV-1 (IIIB)): 0.0% |
| >50 | 10.00 µg/mL (≈ 32.3 µM) | 35.0 µg/mL (≈ 113 µM) | COc1ccc(OC)c(CS(=O)(=O)c2cccc[n+]2[O-])c1 [Compound 47] | – | Antiviral % Inhibition Davis strain CMV (Davis strain CMV; HEL cells): 20.0% |
| >20 | 2.80 µg/mL (≈ 8.59 µM) | >100.0 µg/mL | Cc1ccc(C)c(C(Cl)S(=O)(=O)c2cccc(C)[n+]2[O-])c1 (centres unmarked) [Compound 73] | 0.0 | Antiviral % Inhibition Davis strain CMV (Davis strain CMV; HEL cells): 40.0% |
| >50 | ≧20 ug/ml | 4.0 µg/mL (≈ 15.9 µM) | [O-][n+]1ccccc1[S+]([O-])Cc1ccc(F)cc1 (centres unmarked) [Compound 92] | – | Antiviral % Inhibition Davis strain CMV (Davis strain CMV; HEL cells): 10.0%; HIV-1 % Protection (HIV-1 (IIIB)): 37.5% |
| 11.0 | >20 µg/mL | >20 µg/mL | O=S(=O)(Cc1cccs1)c1cccc[n+]1[O-] [Compound 8] | 0.0 | HIV-1 % Protection (HIV-1 (IIIB)): 0.0% |
| 37.0 | ≧20 ug/ml | – | Cc1ccccc1C[S+]([O-])c1cccc[n+]1[O-] (centres unmarked) [Compound 90] | – | HIV-1 % Protection (HIV-1 (IIIB)): 37.5% |

Source: patent US7064139B2, “Method for treating retroviral infections” (Uniroyal Chemical Company, Inc., priority 2001, dated 2006)
